The record followed here is patent US20260193249A1, “PREPARATION OF PYRAZOLOPYRIDINE AND TRIAZOLOPYRIDINE DERIVATIVES AS NOVEL DIACYLGLYCERIDE O-ACYLTRANSFERASE 2 INHIBITORS” (Merck Sharp & Dohme LLC, priority 2022, published 2026).

Some results are limits rather than exact numbers.

The assay addresses T1, human DGAT2 (Homo sapiens, UniProt Q96PD7).
T1 construct: made in house; host or cells: Sf-9 insect cells (baculovirus), membrane fraction
T1 sequence (Q96PD7 1-388): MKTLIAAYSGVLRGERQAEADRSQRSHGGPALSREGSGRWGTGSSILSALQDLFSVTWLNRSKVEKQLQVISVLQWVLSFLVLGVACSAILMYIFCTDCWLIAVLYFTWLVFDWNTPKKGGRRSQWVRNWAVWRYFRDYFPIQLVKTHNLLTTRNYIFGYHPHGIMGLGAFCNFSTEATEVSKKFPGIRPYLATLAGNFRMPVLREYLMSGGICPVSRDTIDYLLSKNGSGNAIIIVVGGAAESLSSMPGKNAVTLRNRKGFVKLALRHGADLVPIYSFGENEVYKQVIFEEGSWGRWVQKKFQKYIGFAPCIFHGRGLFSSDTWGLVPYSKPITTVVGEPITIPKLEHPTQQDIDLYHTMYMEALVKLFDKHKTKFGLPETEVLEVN
Kind of assay: DGAT2 Enzymatic Activity Assay. Type of assay: biochemical. The note with it: membrane prep of Sf-9 insect cells expressing hDGAT2; 13C18-triolein product by LC/MS/MS; 25 μM diolein, 5 μM 13C oleoyl-CoA. As to the method: Sf-9 insect cells were maintained in Grace's insect cell culture medium with 10% heated-inactivated fetal bovine serum, 1% Pluronic F-68 and 0.14 μg/ml Kanamycine sulfate at 27° C. in a shaker incubator. After infection with untagged baculovirus expressing human DGAT2 (hDGAT2) at multiplicity of infection (MOI) 3 for 48 hours, cells were harvested. Cell pellets were suspended in buffer containing 10 mM Tris-HCl pH 7.5, 1 mM EDTA, 250 mM sucrose and Complete Protease Inhibitor Cocktail (Sigma Aldrich), and sonicated on ice. Cell debris were removed by centrifugation at 2000×g for 15 minutes. Membrane fractions were isolated by ultracentrifugation (100,000×g), resuspended in the same buffer, and frozen (−80° C.) for later use. The protein concentration was determined with the Pierce™ BCA Protein Assay Kit (Thermo Fisher Scientific).
LC/MS/MS analyses were performed using Thermal Fisher's LX4-TSQ Vantage system. This system consists of an Agilent binary high-performance liquid chromatography (HPLC) pump and a TSQ Vantage triple quadrupole MS/MS instrument. For each sample, 2 μL samples from the top organic layer of in-plate liquid-liquid extraction were injected onto a Thermo Betabasic C4 column (2.1 mm×20 mm, 5 μm particle size). The samples were then eluted using the following conditions; mobile phase: Isopropanol:acetonitrile/10 mM ammonium formate=50/35/15 (v/v/v), flow rate: 0.8 mL/min, temperature: 25° C. Data was acquired in positive mode using a heated electrospray ionization (HESI) interface. […] The peak area was integrated by Xcalibur Quan software. The ratio between the ^13C18triolein generated in the reaction and spiked in internal standard ^13C21-triolein was used to generate percentage inhibition and IC50 values. Compound percentage inhibition was calculated by the following formula: Inhibition %=1−[(compound response−low control)/(high control−low control)]×100%.
DGAT2 activity was determined by measuring the amount of enzymatic product ^13C18-triolein (^13C-1,2,3-Tri(cis-9-octadecenoyl)glycerol) using the membrane prep mentioned above. The assay was carried out in ABgene 384-well assay plates in a final volume of 25 μL at rt.

By IC50 is commonly meant the midpoint of a concentration-inhibition curve. The low end stands for inhibition by little substance, the high end for a need for much substance. Take `CN1C(C)(C)C(NC(=O)c2cc3cc(Oc4ncccc4OCC(F)(F)F)ccn3n2)CS1(=O)=O` (racemic) [Example 2, 5-((3-(2,2,2-Trifluoroethoxy)pyridin-2-yl)oxy)-N-(2,3,3-trimethyl-1,1-dioxidoisothiazolidin-4-yl)pyrazolo[1,5-a]pyridine-2-carboxamide]: inhibition was half-maximal at 787 nM (IC50).

`CC1(NC(=O)c2cc3cc(Oc4ncc(C(O)C5CC5)cc4OCC(F)(F)F)ccn3n2)CCS(=O)(=O)CC1` (single isomer, unassigned) [Example 43a, 5-((5-(Cyclopropyl(hydroxy)methyl)-3-(2,2,2-trifluoroethoxy)pyridin-2-yl)oxy)-N-(4-methyl-1,1-dioxidotetrahydro-2H-thiopyran-4-yl)pyrazolo[1,5-a]pyridine-2-carboxamide] yielded an IC50 of 228 nM.

The compound `CC1(NC(=O)c2cc3cc(Oc4ncc(C(O)C5CC5)cc4OCC(F)(F)F)ccn3n2)CCS(=O)(=O)CC1` (single isomer, unassigned) [Example 43b, 5-((5-(Cyclopropyl(hydroxy)methyl)-3-(2,2,2-trifluoroethoxy)pyridin-2-yl)oxy)-N-(4-methyl-1,1-dioxidotetrahydro-2H-thiopyran-4-yl)pyrazolo[1,5-a]pyridine-2-carboxamide] showed an IC50 greater than 9990 nM.

For `CC(O)c1cnc(Oc2ccn3nc(C(=O)NC4(C)CCS(=O)(=O)CC4)cc3c2)c(OCC(F)(F)F)c1` (single isomer, unassigned) [Example 44a, 5-((5-(1-Hydroxyethyl)-3-(2,2,2-trifluoroethoxy)pyridin-2-yl)oxy)-N-(4-methyl-1,1-dioxidotetrahydro-2H-thiopyran-4-yl)pyrazolo[1,5-a]pyridine-2-carboxamide], the IC50 came to 111 nM. `CC(O)c1cnc(Oc2ccn3nc(C(=O)NC4(C)CCS(=O)(=O)CC4)cc3c2)c(OCC(F)(F)F)c1` (single isomer, unassigned) [Example 44b, 5-((5-(1-Hydroxyethyl)-3-(2,2,2-trifluoroethoxy)pyridin-2-yl)oxy)-N-(4-methyl-1,1-dioxidotetrahydro-2H-thiopyran-4-yl)pyrazolo[1,5-a]pyridine-2-carboxamide] yielded an IC50 of 332 nM. To `CC1(NC(=O)c2cc3cc(Oc4ncc(C(O)C(F)(F)F)cc4OCC(F)(F)F)ccn3n2)CS(=O)(=O)C1` (single isomer, unassigned) [Example 45a, N-(3-Methyl-1,1-dioxidothietan-3-yl)-5-((5-(2,2,2-trifluoro-1-hydroxyethyl)-3-(2,2,2-trifluoroethoxy)pyridin-2-yl)oxy)pyrazolo[1,5-a]pyridine-2-carboxamide] belongs greater than 9990 nM; to `CC1(NC(=O)c2cc3cc(Oc4ncc(C(O)C(F)(F)F)cc4OCC(F)(F)F)ccn3n2)CS(=O)(=O)C1` (single isomer, unassigned) [Example 45b, N-(3-Methyl-1,1-dioxidothietan-3-yl)-5-((5-(2,2,2-trifluoro-1-hydroxyethyl)-3-(2,2,2-trifluoroethoxy)pyridin-2-yl)oxy)pyrazolo[1,5-a]pyridine-2-carboxamide], 1560 nM; to `CC(O)c1c(C(=O)NC2(C)CCS(=O)(=O)CC2)nn2ccc(Oc3ncccc3OCC(F)(F)F)cc12` (single isomer, unassigned) [Example 52a, 3-(1-Hydroxyethyl)-N-(4-methyl-1,1-dioxidotetrahydro-2H-thiopyran-4-yl)-5-((3-(2,2,2-trifluoroethoxy)pyridin-2-yl)oxy)pyrazolo[1,5-a]pyridine-2-carboxamide], 1590 nM. Then `CC(O)c1c(C(=O)NC2(C)CCS(=O)(=O)CC2)nn2ccc(Oc3ncccc3OCC(F)(F)F)cc12` (single isomer, unassigned) [Example 52b, 3-(1-Hydroxyethyl)-N-(4-methyl-1,1-dioxidotetrahydro-2H-thiopyran-4-yl)-5-((3-(2,2,2-trifluoroethoxy)pyridin-2-yl)oxy)pyrazolo[1,5-a]pyridine-2-carboxamide], with 333 nM; and `CC1(NC(=O)c2cc3cc(Oc4ncccc4OCC(F)(F)F)ccn3n2)CCS(=O)(=O)CC1` [Example 1, N-(4-Methyl-1,1-dioxidotetrahydro-2H-thiopyran-4-yl)-5-((3-(2,2,2-trifluoroethoxy)pyridin-2-yl)oxy)pyrazolo[1,5-a]pyridine-2-carboxamide], with 9.7 nM; and `CC(C)(CNS(C)(=O)=O)NC(=O)c1cc2cc(Oc3ncccc3OCC(F)(F)F)ccn2n1` [Example 3, N-(2-Methyl-1-(methylsulfonamido)propan-2-yl)-5-((3-(2,2,2-trifluoroethoxy)pyridin-2-yl)oxy)pyrazolo[1,5-a]pyridine-2-carboxamide], with 694 nM. Then `O=C(NC1CCCN(CC(F)(F)F)C1=O)c1cc2cc(Oc3ncccc3OCC(F)(F)F)ccn2n1` (stereo not drawn) [Example 4, N-(2-Oxo-1-(2,2,2-trifluoroethyl)piperidin-3-yl)-5-((3-(2,2,2-trifluoroethoxy)pyridin-2-yl)oxy)pyrazolo[1,5-a]pyridine-2-carboxamide], with 309 nM; and `CC1(NC(=O)c2cc3cc(Oc4ncccc4OCC(F)(F)F)ccn3n2)CS(=O)(=O)C1` [Example 5, N-(3-Methyl-1,1-dioxidothietan-3-yl)-5-((3-(2,2,2-trifluoroethoxy)pyridin-2-yl)oxy)pyrazolo[1,5-a]pyridine-2-carboxamide], with 149 nM. `O=C(N[C@H]1CCOC1)c1cc2cc(Oc3ncccc3OCC(F)(F)F)ccn2n1` [Example 6, (S)-N-(Tetrahydrofuran-3-yl)-5-((3-(2,2,2-trifluoroethoxy)pyridin-2-yl)oxy)pyrazolo[1,5-a]pyridine-2-carboxamide]: the half-maximal inhibitory concentration (IC50) is greater than 9990 nM. To `O=C(NC1CCCC1)c1cc2cc(Oc3ncccc3OCC(F)(F)F)ccn2n1` [Example 7, N-Cyclopentyl-5-((3-(2,2,2-trifluoroethoxy)pyridin-2-yl)oxy)pyrazolo[1,5-a]pyridine-2-carboxamide] belongs 1070 nM; to `C[C@@]1(NC(=O)c2cc3cc(Oc4nccnc4OCC(F)F)ccn3n2)CCS(=O)(=O)C1` [Example 8, (R)-5-((3-(2,2-Difluoroethoxy)pyrazin-2-yl)oxy)-N-(3-methyl-1,1-dioxidotetrahydrothiophen-3-yl)pyrazolo[1,5-a]pyridine-2-carboxamide], 211 nM; to `CC1(NC(=O)c2cc3cc(Oc4nccnc4OCC(F)F)ccn3n2)CCS(=O)(=O)CC1` [Example 9, 5-((3-(2,2-Difluoroethoxy)pyrazin-2-yl)oxy)-N-(4-methyl-1,1-dioxidotetrahydro-2H-thiopyran-4-yl)pyrazolo[1,5-a]pyridine-2-carboxamide], 2.3 nM. Then `CC1(NC(=O)c2cc3cc(Oc4ncc(F)cc4OC4CC4)ccn3n2)CCS(=O)(=O)CC1` [Example 10, 5-((3-Cyclopropoxy-5-fluoropyridin-2-yl)oxy)-N-(4-methyl-1,1-dioxidotetrahydro-2H-thiopyran-4-yl)pyrazolo[1,5-a]pyridine-2-carboxamide], with 85 nM; and `CC1(NC(=O)c2cc3cc(Oc4ncc(F)cc4OCC(F)F)ccn3n2)CS(=O)(=O)C1` [Example 11, 5-((3-(2,2-Difluoroethoxy)-5-fluoropyridin-2-yl)oxy)-N-(3-methyl-1,1-dioxidothietan-3-yl)pyrazolo[1,5-a]pyridine-2-carboxamide], with 2.5 nM. To `CC1(NC(=O)c2cc3cc(Oc4ncc(F)cc4OC4CC4)ccn3n2)CS(=O)(=O)C1` [Example 12, 5-((3-Cyclopropoxy-5-fluoropyridin-2-yl)oxy)-N-(3-methyl-1,1-dioxidothietan-3-yl)pyrazolo[1,5-a]pyridine-2-carboxamide] belongs 1800 nM.

`CC1(NC(=O)c2cc3cc(Oc4nccnc4OCC(F)(F)F)ccn3n2)CCS(=O)(=O)CC1` [Example 13, N-(4-Methyl-1,1-dioxidotetrahydro-2H-thiopyran-4-yl)-5-((3-(2,2,2-trifluoroethoxy)pyrazin-2-yl)oxy)pyrazolo[1,5-a]pyridine-2-carboxamide] came in with an IC50 of 17 nM.
